Assay results from patent US20220340597A1, “HEXAHYDRO-1H-PYRAZINO[1,2-A]PYRAZINE COMPOUNDS FOR THE TREATMENT OF AUTOIMMUNE DISEASE” (Hoffmann-La Roche Inc., priority 2019, published 2022).

Assays:
human TLR8 = target: T1, human TLR8 (Homo sapiens, UniProt Q9NR97); assay: HEK293-Blue-hTLR-8 cells assay
T1 sequence (Q9NR97 27-1041): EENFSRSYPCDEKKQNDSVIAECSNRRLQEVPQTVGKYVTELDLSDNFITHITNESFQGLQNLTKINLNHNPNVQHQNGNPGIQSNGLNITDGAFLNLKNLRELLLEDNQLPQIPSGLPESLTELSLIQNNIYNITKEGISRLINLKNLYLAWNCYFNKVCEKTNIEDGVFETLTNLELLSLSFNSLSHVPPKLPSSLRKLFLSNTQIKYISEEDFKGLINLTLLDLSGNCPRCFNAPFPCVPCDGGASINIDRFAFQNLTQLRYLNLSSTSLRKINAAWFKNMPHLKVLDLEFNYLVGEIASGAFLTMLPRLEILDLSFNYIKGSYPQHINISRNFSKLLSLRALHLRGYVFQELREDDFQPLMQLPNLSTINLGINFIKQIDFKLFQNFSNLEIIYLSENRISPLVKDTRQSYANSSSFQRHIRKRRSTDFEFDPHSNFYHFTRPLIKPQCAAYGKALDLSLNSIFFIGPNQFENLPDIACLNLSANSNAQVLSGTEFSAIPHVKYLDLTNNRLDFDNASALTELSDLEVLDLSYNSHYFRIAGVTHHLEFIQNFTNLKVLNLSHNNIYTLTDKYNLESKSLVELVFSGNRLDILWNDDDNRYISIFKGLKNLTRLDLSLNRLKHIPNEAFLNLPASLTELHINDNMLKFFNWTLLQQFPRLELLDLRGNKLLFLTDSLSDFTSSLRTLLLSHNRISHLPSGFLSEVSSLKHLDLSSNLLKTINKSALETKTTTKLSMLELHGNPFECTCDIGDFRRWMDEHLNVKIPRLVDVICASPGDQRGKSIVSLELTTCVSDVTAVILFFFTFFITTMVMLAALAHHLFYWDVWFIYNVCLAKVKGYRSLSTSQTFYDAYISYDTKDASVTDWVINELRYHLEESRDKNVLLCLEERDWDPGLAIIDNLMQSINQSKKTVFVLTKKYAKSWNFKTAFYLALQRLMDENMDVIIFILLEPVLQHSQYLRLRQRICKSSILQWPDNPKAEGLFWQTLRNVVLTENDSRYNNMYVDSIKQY

human TLR9 = target: T2, human TLR9 (Homo sapiens, UniProt Q9NR96); assay: HEK293-Blue-hTLR-9 cells assay; format: cell-based; details: HEK293-Blue-hTLR9 cells, ODN2006 stimulation, 20 hrs, SEAP reporter; read-out: HEK/hTLR9 IC50
T2 construct: host or cells: HEK293 (HEK-Blue hTLR9)
T2 sequence (Q9NR96 26-1032): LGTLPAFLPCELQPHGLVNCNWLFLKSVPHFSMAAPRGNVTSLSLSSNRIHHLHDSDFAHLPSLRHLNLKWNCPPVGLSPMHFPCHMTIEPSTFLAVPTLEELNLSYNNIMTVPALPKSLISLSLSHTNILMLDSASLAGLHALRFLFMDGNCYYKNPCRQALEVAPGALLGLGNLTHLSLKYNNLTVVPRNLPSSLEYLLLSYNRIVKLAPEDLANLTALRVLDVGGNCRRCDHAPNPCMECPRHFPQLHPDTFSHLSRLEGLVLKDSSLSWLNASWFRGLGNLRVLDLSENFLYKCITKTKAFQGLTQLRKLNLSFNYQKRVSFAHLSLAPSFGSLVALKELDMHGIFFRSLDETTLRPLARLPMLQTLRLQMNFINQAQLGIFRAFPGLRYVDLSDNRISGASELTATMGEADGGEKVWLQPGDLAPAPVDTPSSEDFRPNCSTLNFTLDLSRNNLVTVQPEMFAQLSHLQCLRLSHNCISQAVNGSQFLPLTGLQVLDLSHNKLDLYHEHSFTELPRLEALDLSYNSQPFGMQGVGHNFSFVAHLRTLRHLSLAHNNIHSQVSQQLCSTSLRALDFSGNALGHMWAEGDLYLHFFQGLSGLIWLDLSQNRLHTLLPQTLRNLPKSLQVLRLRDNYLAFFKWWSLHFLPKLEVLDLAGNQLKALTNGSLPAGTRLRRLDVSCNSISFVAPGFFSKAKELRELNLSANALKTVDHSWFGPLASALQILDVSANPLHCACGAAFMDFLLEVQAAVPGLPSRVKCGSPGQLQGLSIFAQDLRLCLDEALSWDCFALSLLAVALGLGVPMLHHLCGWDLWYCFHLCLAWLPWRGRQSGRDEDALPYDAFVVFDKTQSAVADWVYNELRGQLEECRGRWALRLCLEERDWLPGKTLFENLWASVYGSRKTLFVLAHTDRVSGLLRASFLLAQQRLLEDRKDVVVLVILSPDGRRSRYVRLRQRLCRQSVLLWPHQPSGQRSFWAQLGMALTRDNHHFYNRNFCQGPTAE

Row | SMILES | IC50 (human TLR8) [nM] | IC50 (human TLR9) [nM]
1 | [2H]c1ccc2c(N3C[C@@H]4CN(Cc5cnc(N6C[C@@H]7C[C@H]6CN7)cc5C)CCN4[C@H](C)C3)ccc(C#N)c2n1 [Example 94, 5-[(4R,9aS)-8-[[6-[(1S,4S)-2,5-diazabicyclo[2.2.1]heptan-2-yl]-4-methyl-3-pyridyl]methyl]-4-methyl-3,4,6,7,9,9a-hexahydro-1H-pyrazino[1,2-a]pyrazin-2-yl]-2-deuterio-quinoline-8-carbonitrile] | 8 | 99
2 | [2H]c1ccc2c(N3C[C@@H]4CN(c5ncc(N6C[C@@H]7C[C@H]6CN7)cc5C)CCN4[C@H](C)C3)ccc(C#N)c2n1 [Example 95, 5-[(4R,9aR)-8-[5-[(1S,4S)-2,5-diazabicyclo[2.2.1]heptan-2-yl]-3-methyl-2-pyridyl]-4-methyl-3,4,6,7,9,9a-hexahydro-1H-pyrazino[1,2-a]pyrazin-2-yl]-2-deuterio-quinoline-8-carbonitrile] | 6 | 142
3 | [2H]c1ccc2c(N3C[C@@H]4CN(c5ncc(N6C[C@@H](N)[C@H](OC)C6)cc5C)CCN4[C@H](C)C3)ccc(C#N)c2n1 [Example 99, 5-[(4R,9aR)-8-[5-[(3R,4R)-3-amino-4-methoxy-pyrrolidin-1-yl]-3-methyl-2-pyridyl]-4-methyl-3,4,6,7,9,9a-hexahydro-1H-pyrazino[1,2-a]pyrazin-2-yl]-2-deuterio-quinoline-8-carbonitrile] | 2 | 155
4 | [2H]c1ccc2c(N3C[C@@H]4CN(c5ncc(N6C[C@H]7NCCO[C@@H]7C6)cc5C)CCN4[C@H](C)C3)ccc(C#N)c2n1 [Example 100, 5-[(4R,9aR)-8-[5-[(4aR,7aR)-3,4,4a,5,7,7a-hexahydro-2H-pyrrolo[3,4-b][1,4]oxazin-6-yl]-3-methyl-2-pyridyl]-4-methyl-3,4,6,7,9,9a-hexahydro-1H-pyrazino[1,2-a]pyrazin-2-yl]-2-deuterio-quinoline-8-carbonitrile] | 3 | 173

Results, then the compound that gave them:

Row | IC50 (human TLR8) [nM] | IC50 (human TLR9) [nM] | SMILES
5 | 5 | 189 | [2H]c1ccc2c(N3C[C@@H]4CN(c5ncc(N6C[C@@H](N)[C@@H](OC)C6)cc5C)CCN4[C@H](C)C3)ccc(C#N)c2n1 [Example 96, 5-[(4R,9aR)-8-[5-[(3R,4S)-3-amino-4-methoxy-pyrrolidin-1-yl]-3-methyl-2-pyridyl]-4-methyl-3,4,6,7,9,9a-hexahydro-1H-pyrazino[1,2-a]pyrazin-2-yl]-2-deuterio-quinoline-8-carbonitrile]
6 | 4 | 140 | [2H]c1ccc2c(N3C[C@@H]4CN(c5ncc(N6CC[C@@](C)(N)C6)cc5C)CCN4[C@H](C)C3)ccc(C#N)c2n1 [Example 97, 5-[(4R,9aR)-8-[5-[(3R)-3-amino-3-methyl-pyrrolidin-1-yl]-3-methyl-2-pyridyl]-4-methyl-3,4,6,7,9,9a-hexahydro-1H-pyrazino[1,2-a]pyrazin-2-yl]-2-deuterio-quinoline-8-carbonitrile]
7 | 10 | 58 | [2H]c1ccc2c(N3C[C@@H]4CN(Cc5ccc(N6C[C@H]7NCCO[C@@H]7C6)nc5C)CCN4[C@H](C)C3)ccc(C#N)c2n1 [Example 98, 5-[(4R,9aS)-8-[[6-[(4aR,7aR)-3,4,4a,5,7,7a-hexahydro-2H-pyrrolo[3,4-b][1,4]oxazin-6-yl]-2-methyl-3-pyridyl]methyl]-4-methyl-3,4,6,7,9,9a-hexahydro-1H-pyrazino[1,2-a]pyrazin-2-yl]-2-deuterio-quinoline-8-carbonitrile]
